The test system of the assay is rumen inoculum. Nature of the assay: in vitro incubation of test materials with rumen inoculum, methane measured by micro-gas chromatograph. Format: cell-based, dairy cows. The following applies: Example 2, no garlic, 24 hour incubation. As to the method:
Rumen inoculum was obtained before the morning feeding from 3 rumen fistulated dairy cows on a diet composed of 50% maize silage and 50% wilted grass silage (on dry matter basis) supplemented with some straw and urea. Additionally, soybean meal and balanced compound feed were administered to fulfil the animals' requirements for milk production. Test materials were incubated in 125-mL flasks containing 25 mL of CO2-saturated bicarbonate/phosphate buffer (containing 3.58 g Na2HPO4.12H2O, 1.55 g KH2PO4, 0.124 g MgCl2.6H2O, 8.74 g NaHCO3 and 1.71 g NH4HCO3 per liter of distilled water) and rumen inoculum, in triplicate per test material (3 biological replicates). A mixture of maize silage (crude protein 65.6 g kg^−1, crude fat 27.9 g kg^−1, crude fibre 145 g kg^−1 and starch 410 g kg DM^−1), grass silage (crude protein 153 g kg^−1, crude fat 28.8 g kg^−1, crude fibre 277 g kg^−1 and sugar 78.5 g kg^−1) and dairy concentrate (crude protein 183 g kg^−1, crude fibre 29 g kg^−1 an sugar 89 g kg^−1) was used as the substrate (30/30/40, DM weight basis, 250 mg flask^−1). The test materials (garlic powder, eugenol, geranyl acetate and coriander oil) were added shortly before the incubation directly into the fluid. All flasks were incubated in a shaking incubator at 39° C. (Edmund Buhler Gmbh, Hechingen, Germany). At the end of the 24 hour incubation, flasks were removed from the incubator and placed in ice water to stop the fermentation. pH, gas pressure and gas composition were measured, and samples were collected for VFA analysis. Different amounts of garlic powder were used providing allicin doses of 0.1 mg, 0.2 mg, 0.4 mg, and 0.8 mg per flask (i.e. 4 mg/l, 8 mg/l, 16 mg/l, and 32 mg/l). A fixed concentration of 500 mg/l (i.e. 12.5 mg/flask) for the other test materials was used. Water was used as a negative control. The amount of methane gas was measured using a micro-gas chromatograph equipped with two gas chromatographic modules and a thermal conductivity detector (3000 micro-GC, Agilent, USA). Ethane (C2H6; 1 mL/flask) was used as internal standard and argon as a carrier gas for both columns. The data obtained with the test materials was normalized to a non-treated control group, i.e. samples receiving the substrate only (negative control). I.e. 100% refers to the value of the negative control. Values below 100% indicate reduction of methane as a result of the additive. Values above 100% indicate an increase in methane production. The synergism between garlic and a component of essential oil was also studied. Synergy was calculated by adding the percentage reduction of methane by garlic alone and eugenol or geranyl acetate alone and then subtracting the percentage reduction of the combination and the component of essential oil. The resulting values were inversed. […] An experiment was conducted to test the dose-dependent effects of the essential oils and the components of the essential oils. The same method and test materials of Example 1 was used in this experiment. Different amounts of garlic powder were used providing allicin doses of 0.1 mg, 0.2 mg, 0.4 mg, and 0.8 mg per flask (i.e. 4 mg/l, 8 mg/l, 16 mg/l, and 32 mg/l). The doses of eugenol, geranyl acetate, coriander oil and bornyl acetate were varied in this experiment whereby 0.25 mg/ml, 0.5 mg/ml, 0.75 mg/ml of test materials was used. Water was used as a negative control. The amount of methane produced for each reaction was measured using the same method as described in Example 1.

The mark [1] stands for this setting: essential oil or component alone 0.25 mg/mL.
The mark [2] stands for this setting: essential oil or component alone 0.5 mg/mL.
Setting [3] is: essential oil or component alone 0.75 mg/mL.

On to `CC(=O)OC1CC2CCC1(C)C2(C)C` (stereo not drawn) [Bornyl acetate], for which the production of methane under setting [1] came to 422 μmol/reaction, the production of methane under setting [2] amounted to 353 μmol/reaction and the production of methane under setting [3] was determined as 267 μmol/reaction.

In the case of `C=CCc1ccc(O)c(OC)c1` [Eugenol], the production of methane reads like this: under setting [1], 388 μmol/reaction; under setting [2], 310 μmol/reaction; under setting [3], 234 μmol/reaction.

Take `CC(=O)OC/C=C(\C)CCC=C(C)C` [Geranyl acetate]: the production of methane is, setting by setting: under setting [1], 436 μmol/reaction; under setting [2], 327 μmol/reaction; under setting [3], 203 μmol/reaction.

The values above are taken from patent US20220256890A1, “ANIMAL FEED SUPPLEMENT AND ANIMAL FEED COMPOSITION” (MOOTRAL INNOVATIONS LIMITED, priority 2019, published 2022).
